The experiment concerns P388 leukemia ip, CD2F1 mice, survival T/C. Description: NCI In Vivo Anticancer Drug Screen. Data for tumor model P388 Leukemia (intraperitoneal) in CD2F1 (CDF1) mice. The note with it: endpoint: median survival time, higher = longer survival. The method in brief:
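Mice carrying the transplanted tumor received test compound or vehicle. Survival was recorded in each group, and the value is the treated-group measurement divided by that of the vehicle-treated control group.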

Where [1] appears, read: dose: 50.0 mg/kg/injection, schedule: Q01DX009 (ip), vehicle: saline with Tween-80.
The mark [2] stands for this setting: dose: 100.0 mg/kg/injection, schedule: Q01DX009 (ip), vehicle: saline with Tween-80.
Where [3] appears, read: dose: 100.0 mg/kg/injection, schedule: Q04DX002 (ip), vehicle: Klucel (hydroxypropylcellulose) (HPC).
Where [4] appears, read: dose: 50.0 mg/kg/injection, schedule: Q01DX009 (ip), vehicle: Klucel (hydroxypropylcellulose) (HPC).
The mark [5] stands for this setting: dose: 100.0 mg/kg/injection, schedule: Q01DX009 (ip), vehicle: Klucel (hydroxypropylcellulose) (HPC).

Several values for one entry are separate records, joined by “and”; a condition that tells them apart may be missing. Equal entries are not always repeated. Toxic doses and inconclusive results are not listed.

`COc1cc2c(cc1OC)-c1cc3cc(OC)c(OC)cc3c(C)[n+]1CC2` (tested in a mixture with another compound): the T/C by setting is: (dose: 1.56 mg/kg/injection, schedule: Q01DX009 (ip), vehicle: water) 102 % of control; (dose: 3.13 mg/kg/injection, schedule: Q01DX009 (ip), vehicle: water) 102 % of control; (dose: 6.25 mg/kg/injection, schedule: Q01DX009 (ip), vehicle: water) 111 % of control; (dose: 12.5 mg/kg/injection, schedule: Q01DX009 (ip), vehicle: water) 118 % of control; (dose: 14.8 mg/kg/injection, schedule: Q01DX009 (ip), vehicle: water) 113 % of control; (dose: 22.0 mg/kg/injection, schedule: Q01DX009 (ip), vehicle: water) 109 % of control. The T/C reads like this: (dose: 33.0 mg/kg/injection, schedule: Q01DX009 (ip), vehicle: water) 117 % of control; (dose: 50.0 mg/kg/injection, schedule: Q01DX009 (ip), vehicle: water) 116 % of control; (dose: 75.0 mg/kg/injection, schedule: Q01DX009 (ip), vehicle: water) 97 % of control.

On to `O=C1c2ccc(Cl)cc2OCCC1CN1CCCCC1` (stereo not drawn), for which the T/C runs as follows: (dose: 100.0 mg/kg/injection, schedule: Q04DX003 (ip), vehicle: saline) 100 % of control; (dose: 200.0 mg/kg/injection, schedule: Q04DX003 (ip), vehicle: saline) 103 % of control.

`CC(=O)OCC12C(=O)CC(C)C3(CC(c4ccoc4)OC3=O)C1CCC(=O)C2(O)CCl` (stereo not drawn): the T/C was 96 % of control (dose: 0.75 mg/kg/injection, schedule: Q01DX005 (ip), vehicle: saline + alcohol); 106 % of control (dose: 1.5 mg/kg/injection, schedule: Q01DX005 (ip), vehicle: saline + alcohol); 103 % of control (dose: 3.0 mg/kg/injection, schedule: Q01DX005 (ip), vehicle: saline + alcohol); 108 % of control (dose: 6.0 mg/kg/injection, schedule: Q01DX005 (ip), vehicle: saline + alcohol); 106 % of control (dose: 12.0 mg/kg/injection, schedule: Q01DX005 (ip), vehicle: saline + alcohol); 90 % of control (dose: 12.5 mg/kg/injection, schedule: Q01DX005 (ip), vehicle: saline + Tween-80 + alcohol). Moreover, the T/C was 90 % of control (dose: 25.0 mg/kg/injection, schedule: Q01DX005 (ip), vehicle: saline + Tween-80 + alcohol); 93 % of control (dose: 50.0 mg/kg/injection, schedule: Q01DX005 (ip), vehicle: saline + Tween-80 + alcohol); 100 % of control (dose: 150.0 mg/kg/injection, schedule: Q01DX005 (ip), vehicle: saline + Tween-80 + alcohol).

Turning to `CN1c2ccccc2SC2C(c3ccccc3)=NOC21` (stereo not drawn), the T/C (dose: 3.75 mg/kg/injection, schedule: Q01DX005 (ip), vehicle: saline with Tween-80) is 98 % of control; the T/C (dose: 7.5 mg/kg/injection, schedule: Q01DX005 (ip), vehicle: saline with Tween-80) was 93 % of control; the T/C (dose: 15.0 mg/kg/injection, schedule: Q01DX005 (ip), vehicle: saline with Tween-80) was 90 % of control; the T/C (dose: 30.0 mg/kg/injection, schedule: Q01DX005 (ip), vehicle: saline with Tween-80) was 88 % of control; the T/C (dose: 60.0 mg/kg/injection, schedule: Q01DX005 (ip), vehicle: saline with Tween-80) is 86 % of control; the T/C (dose: 240.0 mg/kg/injection, schedule: Q01DX005 (ip), vehicle: saline with Tween-80) was 89 % of control.

As to `O=NN(CCCl)C(=O)N[C@H]1CCCC[C@@H]1Cl`, the T/C runs as follows: (dose: 25.0 mg/kg/injection, schedule: Q01DX009 (ip), vehicle: saline with Tween-80) 250 % of control; (dose: 33.0 mg/kg/injection, schedule: Q04DX003 (ip), vehicle: saline with Tween-80) 200 % of control; under setting [1], 109 % of control; (dose: 50.0 mg/kg/injection, schedule: Q04DX003 (ip), vehicle: saline with Tween-80) 300 % of control; (dose: 100.0 mg/kg/injection, schedule: Q04DX003 (ip), vehicle: saline with Tween-80) 90 % of control.

Take `O=C(CCl)NN=C1C2CC3CC(C2)CC1C3`: the T/C under setting [2] is 113 % of control.

In the case of `CCCCCCCCCCCC(=O)N(CCOC(=O)c1ccccc1)CCOC(=O)c1ccccc1`, the T/C under setting [1] was 101 % of control; the T/C under setting [2] was 93 % of control; the T/C (dose: 200.0 mg/kg/injection, schedule: Q01DX009 (ip), vehicle: saline with Tween-80) was 107 % of control.

`COc1ccc(C2=C(Cl)C(=O)N(c3ccc(O)cc3)C(=O)C2(Cl)Cl)cc1`: the T/C reads like this: under setting [3], 106 % of control; (dose: 200.0 mg/kg/injection, schedule: Q04DX002 (ip), vehicle: Klucel (hydroxypropylcellulose) (HPC)) 107 % of control; (dose: 400.0 mg/kg/injection, schedule: Q04DX002 (ip), vehicle: Klucel (hydroxypropylcellulose) (HPC)) 116 % of control.

Turning to `CCN(CC)CCC(O)c1ccc(Cl)c2ccccc12` (stereo not drawn), the T/C is, setting by setting: (dose: 50.0 mg/kg/injection, schedule: Q01DX005 (ip), vehicle: saline) 106 % of control; (dose: 100.0 mg/kg/injection, schedule: Q01DX005 (ip), vehicle: saline) 101 % of control.

Take `CCCCCCCCCCCCOP(=O)(N1CC1(C)C)N1CC1(C)C` (stereo not drawn): the T/C is, setting by setting: (dose: 2.0 mg/kg/injection, schedule: Q01DX009 (ip), vehicle: saline with Tween-80) 108 % of control and 113 % of control; (dose: 4.0 mg/kg/injection, schedule: Q01DX009 (ip), vehicle: saline with Tween-80) 103 % of control and 108 % of control; (dose: 8.0 mg/kg/injection, schedule: Q01DX009 (ip), vehicle: saline with Tween-80) 114 % of control and 117 % of control; (dose: 16.0 mg/kg/injection, schedule: Q01DX009 (ip), vehicle: saline with Tween-80) 102 % of control and 117 % of control.

In the case of `NCCCCNC(c1ccccc1)C(O)c1ccccc1` (stereo not drawn), the T/C under setting [4] was 100 % of control and the T/C under setting [5] is 99 % of control.

As for `COc1cccc2c1C(=O)c1c(O)c3c(c(O)c1C2=O)[C@@H](N=[N+]=[N-])[C@@](O)(C(C)=O)C[C@@H]3OC1CC(N)C(O)C(C)O1` (stereo partly drawn), the T/C by setting is: (dose: 3.13 mg/kg/injection, schedule: Q04DX003 (ip), vehicle: water) 102 % of control; (dose: 6.25 mg/kg/injection, schedule: Q04DX003 (ip), vehicle: water) 111 % of control; (dose: 12.5 mg/kg/injection, schedule: Q04DX003 (ip), vehicle: water) 117 % of control and 120 % of control; (dose: 25.0 mg/kg/injection, schedule: Q04DX003 (ip), vehicle: water) 122 % of control; (dose: 50.0 mg/kg/injection, schedule: Q04DX003 (ip), vehicle: water) 105 % of control and 120 % of control; (dose: 100.0 mg/kg/injection, schedule: Q04DX003 (ip), vehicle: water) 100 % of control.

Regarding `Cc1ccnc(NCc2ccccn2)c1`, the T/C is 105 % of control (dose: 50.0 mg/kg/injection, schedule: Q01DX005 (ip), vehicle: saline with Tween-80) and 102 % of control (dose: 100.0 mg/kg/injection, schedule: Q01DX005 (ip), vehicle: saline with Tween-80).

For the compound `NC(N)=NCCCC(N)C(=O)CC(Cc1ccccc1)C(=O)O` (stereo not drawn), the T/C reads like this: (dose: 8.8 mg/kg/injection, schedule: Q01DX005 (ip), vehicle: water) 104 % of control; (dose: 17.0 mg/kg/injection, schedule: Q01DX005 (ip), vehicle: water) 108 % of control; (dose: 34.0 mg/kg/injection, schedule: Q01DX005 (ip), vehicle: water) 106 % of control; (dose: 68.0 mg/kg/injection, schedule: Q01DX005 (ip), vehicle: water) 100 % of control.

For the compound `O=C(NNC(O)C(F)(F)F)c1ccccc1F` (stereo not drawn), under setting [3], the T/C is 99 % of control.

As to `CC(=O)C1CCC=CC1Sc1ccccc1` (stereo not drawn), the T/C under setting [4] is 103 % of control; the T/C (dose: 100.0 mg/kg/injection, schedule: Q01DX001 (ip), vehicle: saline) is 93 % of control; the T/C under setting [5] is 96 % of control; the T/C (dose: 200.0 mg/kg/injection, schedule: Q01DX001 (ip), vehicle: saline) is 101 % of control; the T/C (dose: 200.0 mg/kg/injection, schedule: Q01DX009 (ip), vehicle: Klucel (hydroxypropylcellulose) (HPC)) was 121 % of control; the T/C (dose: 400.0 mg/kg/injection, schedule: Q01DX001 (ip), vehicle: saline) is 98 % of control.

As to `CC1=NN(c2ccccc2)C(=O)C1N=Nc1ccccc1S(=O)(=O)O` (stereo not drawn), the T/C runs as follows: (dose: 50.0 mg/kg/injection, schedule: Q01DX009 (ip), vehicle: saline) 108 % of control; (dose: 100.0 mg/kg/injection, schedule: Q01DX009 (ip), vehicle: saline) 109 % of control; (dose: 200.0 mg/kg/injection, schedule: Q01DX009 (ip), vehicle: saline) 111 % of control.

The values are drawn from PubChem BioAssay AID330 (DTP/NCI, 2004).
